Assay results as given in patent US5552155A, “Fusogenic lipsomes and methods for making and using same” (The Liposome Company, Inc., priority 1994, dated 1996).

Tests used:
[1] = 2H-NMR phase behavior of AL-1-d4 in MLVs; format: physicochemical; conditions: for phase behavior by 2H-NMR (in words): 10 mole % AL-1-d4 in EPC/Chol (55:45)
Experimental: Freeze-thawed MLVs of 10 mole % AL-1-d4 in EPC/Chol (55:45) were prepared as described above in 100 mM ammonium acetate at pH 4.0 and pH 7.5 in deuterium-depleted water. Sample concentrations were approximately 150 mM total lipid. Broad line quadrupole spectra were recorded on a Bruker MSL200 spectrometer at 30.7 MHz, using a spin-echo sequence with a 5.3 μs 90° pulse and a 200 ms repeat delay. Temperature was maintained at 20° C. with a liquid nitrogen flow system. […] FIDs were transformed using 100 Hz line-broadening.
Freeze-thawed MLVs containing 5 mole percent AL-1-d4 in EPC/Chol (55:45) were prepared in 20 mM HEPES, 20 mM ammonium acetate, 150 mM NaCl, pH 4.0 and pH 7.5, using deuterium-depleted water. Sample concentrations were approximately 200 mM total lipid. ^2 H-NMR broadline spectra were recorded at 46.175 MHz, on a home-built 300 MHz spectrometer using a 5 μs 90° pulse, 50 μs interpulse spacing, 30.5 μs ring-down delay, and a 300 ms repetition time. A quadrupole echo sequence with eight-step phase cycling was used to accumulate 200,000 scans. The resulting free induction decay (FID) was transformed with 100 Hz line-broadening. High resolution ^31 P spectra were recorded at 81 MHz on a Bruker MSL200 spectrometer, using a 2.8 μs pulse and 30 s repeat. Temperature was maintained at 23 degrees Celsius with a liquid nitrogen flow system. The FID was accumulated over 1000 scans, and transformed with 50 Hz line broadening.
The use of MLVs in this experiment avoids the rapid tumbling of LUVs on the NMR time scale. […] At pH 7.5, the bilayer signal is no longer present, and a strong isotropic peak appears in the middle of the spectrum.

[2] = TNS fluorescence pH titration: apparent pKa and % charged of aminolipids in liposomal membranes; format: physicochemical; conditions: for pKa in the lipid bilayer (text / figure legend): TNS fluorescence titration, 10 mole % AL-1 in EPC/Chol (55:45), no pH gradient (nigericin); for Apparent pKa: in liposomes, from fit of TNS fluorescence titrations to Henderson-Hasselbach equation; for pKa's and relative charges at pH 7.5 (in words): compared with AL-1
Experimental: Preparations were diluted to 0.25 mM total lipid in 5 mM HEPES, 5 mM ammonium, 2 μM TNS at pHs ranging from 3.0 to 10.0 The pH across the vesicle membranes was rendered equal by adding nigericin to a final concentration of 0.01 μM. The TNS fluorescence at each pH value was determined under the conditions given above.
*The data were derived from TNS fluorescence titrations. Curves for each
aminolipid were fitted to the HendersonHasselbach equation by iteratively
varying pKa and maximum and minimum fluorescence.

[3] = Lipid-mixing fusion assay by RET fluorescent probe dilution, EPC/DOPE/Chol liposomes; conditions: for order of fusion traces, uppermost-lowermost / fusion of liposomes / fusion rate (in words): 5 mole % aminolipid, FIG. 9; for order of fusion traces, uppermost-lowermost: EPC/Chol/DOPE (35:20:45); for fusion of liposomes / fusion rate (in words): EPC/DOPE/Chol (35:20:45)
Experimental: (§1) Fusion was monitored by the decrease in resonance energy transfer (RET) resulting from fluorescent probe dilution, as described by Struck et al. (1981). […] The external buffer was 20 mM HEPES (150 mM NaCl, pH 7.5). […] Labeled and unlabeled liposomes were mixed in a 1:3 ratio, and diluted to 0.2 mM total lipid. External buffer was exchanged for 300 mM sucrose, 1 mM citrate, pH 4.0, on Sephadex G-25 columns before diluting preparations to 10 mM lipid. For fusion assays, 20 μl of fluorescently labeled liposomes, and 60 μl unlabeled liposomes, were added to 3.92 ml of 20 mM HEPES, 150 mM NaCl, pH 7.5. After 5 min. of incubation at room temperature, a 3 ml aliquot was added to a cuvette, and the fluorescence was monitored over 5 minutes. Excitation and emission wavelengths were 465 and 535 nm, respectively, and an emission 530 nm cutoff filter was used. To dissipate the gradient and induce fusion, ammonium acetate was added to a final concentration of 100 mM at 30 seconds. The percent change in fluorescence (% F/Fmax) was determined by assigning zero fluorescence (F0) to a trace with no ammonium acetate added and Fmax to a trace measured after adding 100 μl of 25 mM Triton X-100, so that:
(§2) % (F/Fmax)=100×((F-F0)/(Fmax -F0))
To study the effect of aminolipid structure on the fusion of EPC/Chol/DOPE liposomes (35:20:45) liposomes were prepared with 5 mole % of the indicated aminolipid (AL-1-AL-6), an internal pH 4.0, 300 mM sodium citrate buffer, and an external 20 mM HEPES buffer (150 mM NaCl, pH 7.5). Fusion assays were carried out as described above.
(§3) Membrane fusion was monitored by a loss in RET between the fluorescently labeled lipids NBD-PE and Rh-PE. When liposomes containing both of these labels fuse with unlabeled liposomes, the resulting dilution of the fluorescent probes gives increased fluorescence for NBD-PE.

[4] = Lipid asymmetry (transport of aminolipid to the inner monolayer) by TNS fluorescence; format: physicochemical; conditions: internal pH 4, external pH 7.5
Experimental: Aliquots of 90 μl were added to 2.9 ml of 20 mM HEPES, 150 mM NaCl, 5 μM TNS, pH 7.5, and fluorescence was monitored over 5 minutes.
However, at higher concentrations, the fluorescence levels off and begins to decrease.
The slow decreases in fluorescence observed in these curves is a result of photobleaching of TNS during the course of the experiments. […] The rapid movement of the AL-1 across the bilayer is advantageous for its use in controlling fusion.

[5] = Lipid-mixing fusion assay by RET fluorescent probe dilution, EPC/Chol (55:45) liposomes; conditions: for ΔF/ΔFmax (fusion): pH gradient dissipated by ammonium acetate
Experimental: as §1, §2
The labeled and unlabeled liposomes were mixed in a 1:3 ratio and diluted to 0.20 mM total lipid. The pH gradient was dissipated by the addition of ammonium acetate to a final concentration of 100 mM at 30 seconds.
as §3

[6] = Aggregation / stability of aminolipid-containing liposomes; format: physicochemical
[7] = Lipid-mixing fusion assay by RET fluorescent probe dilution, EPC/DOPE/Chol liposomes
[8] = Table 1, from TNS fluorescence titrations
[9] = 10 mole % AL-1 in EPC/Chol (55:45)

**Q.** Which “2H-NMR quadrupolar splitting of signal believed to arise from aminolipid in HII phase” value ([1]; 5 mole % AL-1-d4, EPC/DOPE/Chol, pH 7.5, FIG. 8A) does the source give for [2H]/C(CCCCCCCC)=C(\[2H])CCCCCCCC(=O)OCC(CN(C)C)OC(=O)CCCCCCC/C([2H])=C(/[2H])CCCCCCCC (racemic) [AL-1-d4, rac-1-N,N-dimethylamino-2,3-bis(9,10-dideuteriooleoyl)propane] here?
**A.** about 12 kHz

**Q.** What about the “phase behavior by 2H-NMR (in words)” value ([1]; pH 4.0) of the same compound?
**A.** quadrupolar splittings for the chain-labeled positions of AL-1-d4, with the expected magnitude for lipid in the bilayer

**Q.** With CCCCCCCC/C=C\CCCCCCCC(=O)OCC(O)CN(C)C (racemic) [AL-2, ±-oleoyl-2-hydroxy-3-N,N-dimethylaminopropane] as the compound, how does the “pKa in the lipid bilayer (text / figure legend)” value [2] read?
**A.** about 7.57

**Q.** What about the “Apparent pKa” value ([2]; Table 1) of the same compound?
**A.** 7.57

**Q.** And the “% Charged at pH 7.5” value [2, 8]?
**A.** 54%

**Q.** And the “order of fusion traces, uppermost-lowermost” value (shortened to “order … uppermost-lowermost”) [3]?
**A.** AL-1, AL-5, AL-4, AL-3, AL-6, AL-2 and blank

**Q.** What about the “fusion of liposomes / fusion rate (in words)” value [3] of the same compound?
**A.** little increase in liposome fusion in comparison with liposomes not containing aminolipid

**Q.** Which “pKa in the lipid bilayer (text / figure legend)” value [2] does the source give for CCCCCCCC/C=C\CCCCCCCC(=O)OCC(CN(C)C)OC(C)=O (racemic) [AL-3] here?
**A.** 6.79

**Q.** What about the “% Charged at pH 7.5” value [2, 8] of the same compound?
**A.** 16%

**Q.** And the “% Charged at pH 7.5” value [2]?
**A.** 16%

**Q.** And the “order … uppermost-lowermost” value [3]?
**A.** AL-1, AL-5, AL-4, AL-3, AL-6, AL-2 and blank

**Q.** And the “fusion of liposomes / fusion rate (in words)” value [3]?
**A.** substantially greater fusion rate

**Q.** Which “Apparent pKa” value ([2]; Table 1) does the source give for CCCCCCCC/C=C\CCCCCCCC(=O)OCC(CN(C)C)OC(=O)CCC (racemic) [AL-4] here?
**A.** 6.66

**Q.** And the “% Charged at pH 7.5” value [2, 8]?
**A.** 13%

**Q.** And the “pKa's and relative charges at pH 7.5 (in words)” value [2]?
**A.** approach those for AL-1

**Q.** And the “order … uppermost-lowermost” value [3]?
**A.** AL-1, AL-5, AL-4, AL-3, AL-6, AL-2 and blank

**Q.** What about the “fusion of liposomes / fusion rate (in words)” value [3] of the same compound?
**A.** further increases in the fusion rate, with rates approaching those achieved with AL-1--containing liposomes

**Q.** For CCCCCCCC/C=C\CCCCCCCC(=O)OCC(CN(C)C)OC(=O)CCCCCCCCC (racemic) [AL-5], which “% Charged at pH 7.5” value [2, 8] is on record?
**A.** 14%

**Q.** And the “pKa's and relative charges at pH 7.5 (in words)” value [2]?
**A.** approach those for AL-1

**Q.** What about the “order … uppermost-lowermost” value [3] of the same compound?
**A.** AL-1, AL-5, AL-4, AL-3, AL-6, AL-2 and blank

**Q.** What about the “fusion of liposomes / fusion rate (in words)” value [3] of the same compound?
**A.** further increases in the fusion rate, with rates approaching those achieved with AL-1--containing liposomes

**Q.** What does the source list for CCCCCCCCCC(=O)OCC(CN(C)C)OC(=O)CCCCCCCCC (racemic) [AL-6, ±-1,2-didecanoyl-1-N,N,-dimethyl-aminopropane]?
**A.** % Charged at pH 7.5 [2, 8]: 17%; pKa's and relative charges at pH 7.5 (in words) [2]: approach those for AL-1; order of fusion traces, uppermost-lowermost [3]: AL-1, AL-5, AL-4, AL-3, AL-6, AL-2 and blank; fusion of liposomes / fusion rate (in words) [3]: only limited mixing

**Q.** With CCCCCCCC/C=C\CCCCCCCC(=O)OCC(CN(C)C)OC(=O)CCCCCCC/C=C\CCCCCCCC (centres unmarked) [AL-1, 1-N,N-dimethylamino dioleoyl propane] as the compound, how does the “time until TNS fluorescence equal to that of EPC/Chol liposomes (virtually all AL-1 moved to the inner monolayer)” value [4, 9] read?
**A.** four

**Q.** And the “transbilayer movement to the inner monolayer (in words)” value ([4]; pH gradient)?
**A.** virtually all of the AL-1 had moved to the inner monolayer

**Q.** And the “ΔF/ΔFmax (fusion)” value ([5]; 10 mole % AL-1, EPC/Chol (55:45))?
**A.** ~3%

**Q.** What about the “ΔF/ΔFmax (fusion)” value ([5]; 20 mole % AL-1, EPC/Chol (55:45)) of the same compound?
**A.** ~3%

**Q.** What about the “degree of fusion (in words)” value ([5]; AL-1 in EPC/Chol (55:45)) of the same compound?
**A.** limited degree of fusion

**Q.** And the “ΔF/ΔFmax (fusion)” value ([3]; 5 mole % AL-1, EPC/DOPE/Chol (35:20:45), first 5 minutes)?
**A.** greater than 10%

**Q.** And the “order … uppermost-lowermost” value [3]?
**A.** AL-1, AL-5, AL-4, AL-3, AL-6, AL-2 and blank

**Q.** And the “liposome stability (in words)” value ([6]; 5 mole % AL-1, EPC/DOPE/Chol (35:20:45), pH 4.0 and external pH 7.5)?
**A.** stable liposomes were prepared, and these remained stable when the external pH was increased to 7.5

**Q.** What about the “liposome aggregation (in words)” value ([6]; 10 mole % AL-1, EPC/DOPE/Chol 35:20:45, low pH) of the same compound?
**A.** some aggregation of liposomes was observed at low pH

**Q.** What about the “liposome aggregation (in words)” value ([6]; 10 mole % AL-1, EPC/DOPE/Chol, DOPE above 35:20:45) of the same compound?
**A.** rapid aggregation

**Q.** What about the “liposome aggregation (in words)” value [6, 9] of the same compound?
**A.** aggregated

**Q.** What about the “liposome aggregation (in words)” value ([6]; AL-1 greater than about 20 mole % in EPC/Chol, following extrusion) of the same compound?
**A.** rapid and complete liposome aggregation

**Q.** What about the “phase behavior by 2H-NMR (in words)” value ([1]; pH 7.5) of the same compound?
**A.** exists in separate fluid domains at pH 7.5

**Q.** And the “fusion rate with increasing DOPE (in words)” value ([7]; 10 mole % AL-1, DOPE replacing EPC up to 35:20:45 EPC/DOPE/Chol, FIG. 6)?
**A.** Increasing fusion rates were evident with increasing DOPE concentrations

**Q.** What about the “ΔF/ΔFmax (fusion)” value ([7]; 10 mole % AL-1, EPC/DOPE/Chol 35:20:45, after 5 minutes) of the same compound?
**A.** over 5%

**Q.** And the “ΔF/ΔFmax (fusion)” value ([7]; 10 mole % AL-1, EPC/DOPE/Chol (30:25:45), over 5 minutes after gradient dissipation)?
**A.** ~10%
